From ChEMBL document CHEMBL1201862, “PubChem BioAssay data set” (2004)
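Five compound concentrations were applied to cells in 96-well plates for 48 hours; endpoints were derived by simple linear interpolation of the resulting dose-response curve. GI50: concentration for 50% inhibition of growth.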 Activity calls are given as the source filed them. Rule as the data show it: active = GI50 up to about 1.1 µM and inactive = higher.

How the values were obtained:
Assay in all cases: DTP human tumour cell line panel, 48 h
A549 = test system: A549
NCI-H460 = test system: NCI-H460
Malme-3M = test system: Malme-3M
M14 = test system: M14
HT-29 = test system: HT-29
RXF 393 = test system: RXF 393
LOX IMVI = test system: LOX IMVI
UO-31 = test system: UO-31
M19-MEL = test system: M19-MEL
MOLT-4 = test system: MOLT-4
786-0 = test system: 786-0
SF-295 = test system: SF-295
NCI-H23 = test system: NCI-H23
HCT-15 = test system: HCT-15
SNB-19 = test system: SNB-19
NCI-H522 = test system: NCI-H522
SK-MEL-5 = test system: SK-MEL-5
SK-MEL-2 = test system: SK-MEL-2
SNB-78 = test system: SNB-78
TK-10 = test system: TK-10
LXFL 529 = test system: LXFL 529
NCI-H226 = test system: NCI-H226
CCRF-CEM = test system: CCRF-CEM
HOP-62 = test system: HOP-62
OVCAR-5 = test system: OVCAR-5
COLO 205 = test system: COLO 205
HCT-116 = test system: HCT-116
OVCAR-8 = test system: OVCAR-8
HCC 2998 = test system: HCC 2998
K562 = test system: K562
DMS-114 = test system: DMS-114
DMS-273 = test system: DMS-273
CAKI-1 = test system: CAKI-1
RPMI-8226 = test system: RPMI-8226
SNB-75 = test system: SNB-75
SN12C = test system: SN12C
HL-60 = test system: HL-60
SK-MEL-28 = test system: SK-MEL-28
EKVX = test system: EKVX
U-251 = test system: U-251
KM-20L2 = test system: KM-20L2
UACC-62 = test system: UACC-62
SW-620 = test system: SW-620
SF-268 = test system: SF-268
IGROV-1 = test system: IGROV-1
SK-OV-3 = test system: SK-OV-3
SR = test system: SR
ACHN = test system: ACHN
UACC-257 = test system: UACC-257
SF-539 = test system: SF-539
OVCAR-3 = test system: OVCAR-3
DLD-1 = test system: DLD-1
T47D = test system: T47D
MDA-N = test system: MDA-N
BT-549 = test system: BT-549
A498 = test system: A498
MCF7 = test system: MCF7
PC-3 = test system: PC-3
KM12 = test system: KM12
MDA-MB-231 = test system: MDA-MB-231
OVCAR-4 = test system: OVCAR-4
NCI/ADR-RES = test system: NCI/ADR-RES
MDA-MB-435 = test system: MDA-MB-435
HOP-92 = test system: HOP-92
DU-145 = test system: DU-145
Hs-578T = test system: Hs-578T
HOP-18 = test system: HOP-18

For `CC(=O)O[C@H]1C(=O)[C@@]2(C)C(C(OC(=O)c3ccccc3)C3[C@@H](O)C(OC(=O)[C@@H](O)[C@H](NC(=O)c4ccccc4)c4ccc(C(F)(F)F)cc4)C(C)=C1C3(C)C)[C@]1(OC(C)=O)CO[C@@H]1C[C@@H]2O` (some centres undefined), the GI50 (A549) was 17900 nM (inactive), the GI50 (NCI-H460) was 23900 nM (inactive) and the GI50 (Malme-3M) was > 25000 nM (inactive). The GI50 (M14) was > 25000 nM (inactive), the GI50 (HT-29) was 12600 nM (inactive) and the GI50 (RXF 393) was 14300 nM (inactive). The GI50 (LOX IMVI) was 16100 nM (inactive), the GI50 (UO-31) was 18100 nM (inactive) and the GI50 (M19-MEL) was > 25000 nM (inactive). For the same molecule, the GI50 (MOLT-4) was 11000 nM (inactive), the GI50 (786-0) was > 25000 nM (inactive) and the GI50 (SF-295) was > 25000 nM (inactive). The GI50 (NCI-H23) was > 25000 nM (inactive), the GI50 (HCT-15) was > 25000 nM and the GI50 (SNB-19) was > 25000 nM (inactive). The GI50 (NCI-H522) was 7590 nM (inactive), the GI50 (SK-MEL-5) was 8260 nM (inactive) and the GI50 (SK-MEL-2) was > 25000 nM (inactive). For the same molecule, the GI50 (SNB-78) was > 25000 nM (inactive), the GI50 (TK-10) was > 25000 nM (inactive) and the GI50 (LXFL 529) was 15200 nM (inactive). For the same molecule, the GI50 (NCI-H226) was > 25000 nM (inactive), the GI50 (CCRF-CEM) was 18200 nM (inactive) and the GI50 (HOP-62) was > 25000 nM (inactive). For the same molecule, the GI50 (OVCAR-5) was > 25000 nM (inactive), the GI50 (COLO 205) was 9550 nM (inactive) and the GI50 (HCT-116) was 9100 nM (inactive). The GI50 (OVCAR-8) was > 25000 nM (inactive), the GI50 (HCC 2998) was 16200 nM (inactive) and the GI50 (K562) was 12400 nM (inactive). The GI50 (DMS-114) was 11300 nM (inactive), the GI50 (DMS-273) was 11700 nM (inactive) and the GI50 (CAKI-1) was > 25000 nM (inactive). For the same molecule, the GI50 (RPMI-8226) was 10300 nM (inactive), the GI50 (SNB-75) was 7710 nM (inactive) and the GI50 (SN12C) was > 25000 nM (inactive). For the same molecule, the GI50 (HL-60) was 7980 nM (inactive), the GI50 (SK-MEL-28) was > 25000 nM (inactive) and the GI50 (EKVX) was > 25000 nM (inactive). The GI50 (U-251) was 13300 nM (inactive), the GI50 (KM-20L2) was 8730 nM (inactive) and the GI50 (UACC-62) was 19200 nM (inactive). For the same molecule, the GI50 (SW-620) was 8000 nM (inactive), the GI50 (SF-268) was > 25000 nM (inactive) and the GI50 (IGROV-1) was > 25000 nM (inactive). The GI50 (SK-OV-3) was > 25000 nM (inactive), the GI50 (SR) was 8430 nM (inactive) and the GI50 (ACHN) was > 25000 nM (inactive). For the same molecule, the GI50 (UACC-257) was > 25000 nM (inactive), the GI50 (SF-539) was 9980 nM (inactive) and the GI50 (OVCAR-3) was 17700 nM (inactive). The GI50 (DLD-1) was > 25000 nM (inactive).

With `CCc1ccc(/C=C\c2cc(OC)c(OC)c(OC)c2)cc1` the GI50 (T47D) was 170 nM (active), the GI50 (A549) was 22.3 nM (active) and the GI50 (NCI-H460) was 23.5 nM (active). For the same molecule, the GI50 (Malme-3M) was 124 nM (active), the GI50 (M14) was 50.2 nM (active) and the GI50 (HT-29) was 9.93 nM (active). For the same molecule, the GI50 (MDA-N) was 1.68 nM (active), the GI50 (RXF 393) was 9.08 nM (active) and the GI50 (LOX IMVI) was 13.2 nM (active). For the same molecule, the GI50 (UO-31) was 35.5 nM (active), the GI50 (M19-MEL) was 163 nM (active) and the GI50 (MOLT-4) was 43 nM (active). The GI50 (786-0) was < 19.6 nM (active), the GI50 (BT-549) was 180 nM (active) and the GI50 (SF-295) was 6.31 nM (active). The GI50 (NCI-H23) was 46.1 nM (active), the GI50 (A498) was 14 nM (active) and the GI50 (HCT-15) was 44.9 nM. For the same molecule, the GI50 (SNB-19) was 14.8 nM (active), the GI50 (MCF7) was 37.5 nM (active) and the GI50 (NCI-H522) was 11.8 nM (active). The GI50 (SK-MEL-5) was 18.1 nM (active), the GI50 (SK-MEL-2) was 112 nM (active) and the GI50 (SNB-78) was 150 nM (active). The GI50 (TK-10) was 337 nM (active), the GI50 (LXFL 529) was 211 nM (active) and the GI50 (NCI-H226) was 24 nM (active). For the same molecule, the GI50 (CCRF-CEM) was 9.98 nM (active), the GI50 (HOP-62) was 53.1 nM (active) and the GI50 (OVCAR-5) was 391 nM (active). For the same molecule, the GI50 (COLO 205) was 12.2 nM (active), the GI50 (PC-3) was 3.25 nM (active) and the GI50 (HCT-116) was 10.7 nM (active). For the same molecule, the GI50 (KM12) was 45.2 nM (active), the GI50 (MDA-MB-231) was 144 nM (active) and the GI50 (OVCAR-8) was 45.6 nM (active). For the same molecule, the GI50 (HCC 2998) was 49.2 nM (active), the GI50 (OVCAR-4) was 617 nM (active) and the GI50 (K562) was 8.45 nM (active). The GI50 (DMS-114) was 50.8 nM (active), the GI50 (DMS-273) was 305 nM (active) and the GI50 (CAKI-1) was 38 nM (active). The GI50 (RPMI-8226) was 12.7 nM (active), the GI50 (SNB-75) was 23.4 nM (active) and the GI50 (SN12C) was 15.9 nM (active). The GI50 (NCI/ADR-RES) was 2.86 nM (active), the GI50 (HL-60) was 5.3 nM (active) and the GI50 (SK-MEL-28) was 62.7 nM (active). The GI50 (EKVX) was 887 nM (active), the GI50 (U-251) was 10.2 nM (active) and the GI50 (KM-20L2) was 34.2 nM (active). For the same molecule, the GI50 (UACC-62) was 13.2 nM (active), the GI50 (SW-620) was 8.97 nM (active) and the GI50 (SF-268) was 149 nM (active). For the same molecule, the GI50 (MDA-MB-435) was 2.04 nM (active), the GI50 (HOP-92) was 8.13 nM (active) and the GI50 (DU-145) was 30.3 nM (active). The GI50 (IGROV-1) was 49.3 nM (active), the GI50 (SK-OV-3) was 13 nM (active) and the GI50 (SR) was 2.47 nM (active). The GI50 (ACHN) was 28.5 nM (active), the GI50 (UACC-257) was 26.8 nM (active) and the GI50 (SF-539) was 10.1 nM (active). For the same molecule, the GI50 (Hs-578T) was 2.55 nM (active), the GI50 (OVCAR-3) was 8.43 nM (active) and the GI50 (DLD-1) was 378 nM (active). For the same molecule, the GI50 (HOP-18) was 480 nM (active).
